Measurements as given in patent US9511073B2, “Aromatic amides and uses thereof” (TAXIS Pharmaceuticals, Inc., priority 2011, dated 2016).
Converted amounts (≈) assume the structure as drawn.

System: Staphylococcus aureus (Isolate ID ATCC 29213)
Assay: Bacterial assay: MIC by broth microdilution or agar dilution (CLSI), S. aureus ATCC 29213
Type: cell-based
Conditions: for MIC: Staphylococcus aureus, ATCC29213, read-out: S. aureus MIC (μg/mL) Activity Range, S. aureus (ATCC29213); for S. aureus MIC (μg/mL) Activity Range: S. aureus (ATCC29213)
Summary of the method: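 MICs by CLSI broth microdilution or agar dilution against S. aureus ATCC 29213 and its FtsZ-G196A mutant. Values reported as ranges: A ≤0.25 μg/mL, B >0.25–1.0, C >1.0–16, D >16 μg/mL.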

SMILES	MIC [µg/mL]	S. aureus MIC (μg/mL) Activity Range
NC(=O)c1c(F)ccc(O[C@H](CO)c2nc(-c3ccc(C(=O)N4CCOCC4)cc3)c(Br)o2)c1F [Compound 255B, (R)-3-(1-(5-bromo-4-(4-(morpholine-4-carbonyl)phenyl)oxazol-2-yl)-2-hydroxyethoxy)-2,6-difluorobenzamide]	> 16	–
NC(=O)c1c(F)ccc(OC(CO)c2nc(-c3ccc(Cl)c(F)c3)co2)c1F (stereo not drawn) [Compound 222, 3-(1-(4-(4-chloro-3-fluorophenyl)oxazol-2-yl)-2-hydroxyethoxy)-2,6-difluorobenzamide]	> 16	–
NC(=O)c1c(F)ccc(OC(COC(=O)NCC(=O)O)c2nc(-c3ccc(C(F)(F)F)cc3)c(Br)o2)c1F (stereo not drawn) [Compound 142, 2-(((2-(5-bromo-4-(4-(trifluoromethyl)phenyl)oxazol-2-yl)-2-(3-carbamoyl-2,4-difluorophenoxy)ethoxy)carbonyl)amino)acetic acid]	> 16	–
Cc1nc(-c2nc(C(CO)Oc3ccc(F)c(C(N)=O)c3F)oc2Br)sc1C (stereo not drawn) [Compound 240, 3-(1-(5-bromo-4-(4,5-dimethylthiazol-2-yl)oxazol-2-yl)-2-hydroxyethoxy)-2,6-difluorobenzamide]	> 16	–
Cc1noc(CNC(=O)OCC(Oc2ccc(F)c(C(N)=O)c2F)c2nc(-c3ccc(C(F)(F)F)cc3)c(Br)o2)n1 (stereo not drawn) [Compound 179, 2-(5-bromo-4-(4-(trifluoromethyl)phenyl)oxazol-2-yl)-2-(3-carbamoyl-2,4-difluorophenoxy)ethyl ((3-methyl-1,2,4-oxadiazol-5-yl)methyl)carbamate]	< 0.25	–
NC(=O)c1c(F)ccc(OC(CO)c2nc(-c3ccc(OC(F)(F)F)cc3)c(Br)o2)c1F (stereo not drawn) [Compound 116, 3-(1-(5-bromo-4-(4-(trifluoromethoxy)phenyl)oxazol-2-yl)-2-hydroxyethoxy)-2,6-difluorobenzamide]	< 0.25	–
CN(Cc1cnccn1)C(=O)OCC(Oc1ccc(F)c(C(N)=O)c1F)c1nc(-c2ccc(C(F)(F)F)cc2)c(Br)o1 (stereo not drawn) [Compound 192, 2-(5-bromo-4-(4-(trifluoromethyl)phenyl)oxazol-2-yl)-2-(3-carbamoyl-2,4-difluorophenoxy)ethyl methyl(pyrazin-2-ylmethyl)carbamate]	0.25 to 1 (≈ 0.381 to 1.52 µM)	–
CN(CCNC(=O)OCC(Oc1ccc(F)c(C(N)=O)c1F)c1nc(-c2ccc(C(F)(F)F)cc2)c(Br)o1)C(=O)OC(C)(C)C (stereo not drawn) [Compound 153, tert-butyl (2-(((2-(5-bromo-4-(4-(trifluoromethyl)phenyl)oxazol-2-yl)-2-(3-carbamoyl-2,4-difluorophenoxy)ethoxy)carbonyl)amino)ethyl)(methyl)carbamate]	0.25 to 1 (≈ 0.353 to 1.41 µM)	–
COc1cccc(-c2nc(C(CO)Oc3ccc(F)c(C(N)=O)c3F)oc2Br)c1 (stereo not drawn) [Compound 117, 3-(1-(5-bromo-4-(3-methoxyphenyl)oxazol-2-yl)-2-hydroxyethoxy)-2,6-difluorobenzamide]	> 16	–
NC(=O)c1c(F)ccc(OC(CC(O)CO)c2nc(-c3ccc(C(F)(F)F)cc3)c(Br)o2)c1F (stereo not drawn) [Compound 156, 3-(1-(5-bromo-4-(4-(trifluoromethyl)phenyl)oxazol-2-yl)-3,4-dihydroxybutoxy)-2,6-difluorobenzamide]	–	C (activity>1.0 μg/mL-16 μg/mL)
COc1ccc(-c2nc(C(CO)Oc3ccc(F)c(C(N)=O)c3F)oc2Br)cn1 (stereo not drawn) [Compound 230, 3-(1-(5-bromo-4-(6-methoxypyridin-3-yl)oxazol-2-yl)-2-hydroxyethoxy)-2,6-difluorobenzamide]	1 to 16 (≈ 2.13 to 34 µM)	–
CCCC(Oc1ccc(F)c(C(N)=O)c1F)c1nc(-c2ccc(Cl)cc2)c(Br)o1 (stereo not drawn) [Compound 23]	1 to 16 (≈ 2.06 to 32.9 µM)	–
CC(C)(C)OC(=O)NCCNC(=O)OCC(Oc1ccc(F)c(C(N)=O)c1F)c1nc(-c2ccc(C(F)(F)F)cc2)c(Br)o1 (stereo not drawn) [Compound 151, 2-(5-bromo-4-(4-(trifluoromethyl)phenyl)oxazol-2-yl)-2-(3-carbamoyl-2,4-difluorophenoxy)ethyl tert-butyl ethane-1,2-diyldicarbamate]	< 0.25	–
Cc1noc(-c2ccc(-c3nc(C(CO)Oc4ccc(F)c(C(N)=O)c4F)oc3Br)cc2)n1 (stereo not drawn) [Compound 85, 3-(1-(5-bromo-4-(4-(3-methyl-1,2,4-oxadiazol-5-yl)phenyl)oxazol-2-yl)-2-hydroxyethoxy)-2,6-difluorobenzamide]	1 to 16 (≈ 1.92 to 30.7 µM)	–
CC(=O)NNC(=O)CCC(Oc1ccc(F)c(C(N)=O)c1F)c1nc(-c2ccc(C(F)(F)F)cc2)c(Br)o1 (stereo not drawn) [Compound 92, 3-(4-(2-acetylhydrazinyl)-1-(5-bromo-4-(4-(trifluoromethyl)phenyl)oxazol-2-yl)-4-oxobutoxy)-2,6-difluorobenzamide]	1 to 16 (≈ 1.65 to 26.4 µM)	–
COc1ccc(-c2nc(C(COC(C)=O)Oc3ccc(F)c(C(N)=O)c3F)oc2Br)cc1 (stereo not drawn) [Compound 111, 2-(5-bromo-4-(4-methoxyphenyl)oxazol-2-yl)-2-(3-carbamoyl-2,4-difluorophenoxy)ethyl acetate]	1 to 16	–
COCc1oc([C@@H](CO)Oc2ccc(F)c(C(N)=O)c2F)nc1-c1ccc(OC)cc1 [Compound 304B, (R)-2,6-difluoro-3-(2-hydroxy-1-(5-(methoxymethyl)-4-(4-methoxyphenyl)oxazol-2-yl)ethoxy)benzamide]	1 to 16 (≈ 2.3 to 36.8 µM)	–
NC(=O)c1c(F)ccc(OC(CO)c2nc(C3CCOCC3)co2)c1F (stereo not drawn) [Compound 182, 2,6-difluoro-3-(2-hydroxy-1-(4-(tetrahydro-2H-pyran-4-yl)oxazol-2-yl)ethoxy)benzamide]	> 16	–
NC(=O)c1c(F)ccc(OC(COC(=O)NCc2cccnc2)c2nc(-c3ccc(C(F)(F)F)cc3)c(Br)o2)c1F (stereo not drawn) [Compound 166, 2-(5-bromo-4-(4-(trifluoromethyl)phenyl)oxazol-2-yl)-2-(3-carbamoyl-2,4-difluorophenoxy)ethyl (pyridin-3-ylmethyl)carbamate]	< 0.25	–
NCC(Oc1ccc(F)c(C(N)=O)c1F)c1nc(-c2ccc(C(F)(F)F)cc2)co1 (stereo not drawn) [Compound 281, 3-(2-amino-1-(4-(4-(trifluoromethyl)phenyl)oxazol-2-yl)ethoxy)-2,6-difluorobenzamide]	> 16	–
COc1ccc(-c2coc([C@H](C)Oc3ccc(F)c(C(N)=O)c3F)n2)cc1 [Compound 268A, (S)-2,6-difluoro-3-(1-(4-(4-methoxyphenyl)oxazol-2-yl)ethoxy)benzamide]	> 16	–
CS(=O)(=O)N1CCN(C(=O)OCC(Oc2ccc(F)c(C(N)=O)c2F)c2nc(-c3ccc(C(F)(F)F)cc3)c(Br)o2)C1=O (stereo not drawn) [Compound 169, 2-(5-bromo-4-(4-(trifluoromethyl)phenyl)oxazol-2-yl)-2-(3-carbamoyl-2,4-difluorophenoxy)ethyl 3-(methylsulfonyl)-2-oxoimidazolidine-1-carboxylate]	1 to 16 (≈ 1.43 to 22.9 µM)	–
NC(=O)c1c(F)ccc(OC(COC(=O)NCc2ccccn2)c2nc(-c3ccc(C(F)(F)F)cc3)c(Br)o2)c1F (stereo not drawn) [Compound 165, 2-(5-bromo-4-(4-(trifluoromethyl)phenyl)oazol-2-yl)-2-(3-carbamoyl-2,4-difluorophenoxy)ethyl (pyridin-2-ylmethyl)carbamate]	–	B (activity>0.25 μg/mL-1.0 μg/mL)
C=CCc1oc(C(CC)Oc2ccc(F)c(C(N)=O)c2F)nc1-c1ccc(Cl)cc1 (stereo not drawn) [Compound 22, 3-(1-(5-allyl-4-(4-chlorophenyl)oxazol-2-yl)propoxy)-2,6-difluorobenzamide]	1 to 16 (≈ 2.31 to 37 µM)	–
